Structures can show the parent of a compound that is named as a salt.
Tests used:
[1] = test system: H1299 cells (human non-small cell lung cancer); test: MTT cytotoxicity assay, H1299; type: cell-based; settings: mean ± SEM
Text: (§1) All cell lines used in this study (human non-small cell lung cancer—H1299 (Accession Number—CRL-5803), human lung carcinoma—A549 (Accession Number—CCL-185), human breast adenocarcinoma—MCF-7 (Accession Number—HTB-22), human breast ductal carcinoma—BT474 (Accession Number—HTB-20)) were purchased from American Type Culture Collection (ATCC, Manassas, VA, USA). Human primary dermal fibroblasts (HPDF) derived from a patch of skin of healthy donors (n = 3) were obtained from the biobank of the Institute for Regenerative Medicine, Lomonosov Moscow State University, collection ID: MSU_FB (https://human.depo.msu.ru (accessed on 14 September 2021)). Cells were grown in DMEM media supplemented with 10% fetal bovine serum, 100 μg/mL gentamycin, and 2 mM of glutamine at 37 °C in a 5% CO2 atmosphere.
(§2) To carry out the MTT assay, 3500 cells per well were seeded in 96-well plates. A day after the seeding, triterpenoids or their derivatives dissolved in DMSO were added. DMSO was used as a control. At 48 h after cell seeding, 10 μL of 5 mg/mL Thiazolyl Blue (Paneko, Russia) solution was added to each well and cells were kept for 3 h at 37 °C in a CO2 incubator. After removing the thiazol-containing medium, 150 μL of isopropyl alcohol (supplemented with 40 mM HCl and 0.1% NP-40) was added to dissolve the MTT-formazan salt. The absorbance at 570 and 630 nm (reference) was measured using a BioRad iMark microplate reader (BioRad, Hercules, CA, USA). Four biological replicates were used for the experiment. The results were processed with Excel software (version number: 14.0.6023.1000 (32-bit)). IC50 values were calculated by using AAT Bioquest online calculator (https://www.aatbio.com/tools/ic50-calculator, accessed on 15 May 2023) and are represented as the mean ± SEM.

[2] = test system: BT474 cells (human breast ductal carcinoma); test: MTT cytotoxicity assay, BT474; type: cell-based; settings: BT-474, 48 h of treatment, mean ± SEM
Text: as §1, §2

[3] = test system: MCF-7 cells (human breast adenocarcinoma); test: MTT cytotoxicity assay, MCF-7; type: cell-based; settings: for IC50: Homo sapiens, MCF7, MTT assay, 48 h of treatment, mean ± SEM
Text: as §1, §2

[4] = test system: A549 cells (human lung carcinoma); test: MTT cytotoxicity assay, A549; type: cell-based; settings: for IC50: MTT assay, 48 h of treatment, mean ± SEM
Text: as §1
as §2, with “A day after the seeding, triterpenoids or their derivatives dissolved in DMSO were added.” left out, “At 48 h after cell seeding, 10 μL of 5 mg/mL Thiazolyl Blue (Paneko, Russia) solution was added to each well and cells were kept for 3 h at 37 °C in a CO2 incubator.” left out

[5] = test system: Human primary dermal fibroblasts (HPDF); test: MTT cytotoxicity assay, HPDF; type: cell-based; settings: for IC50: Homo sapiens, Fibroblast, MTT assay, 48 h of treatment, mean ± SEM; for Selectivity against tumor cells and human fibroblasts: in words
Text: as §1
as §2, with “A day after the seeding, triterpenoids or their derivatives dissolved in DMSO were added.” left out, “At 48 h after cell seeding, 10 μL of 5 mg/mL Thiazolyl Blue (Paneko, Russia) solution was added to each well and cells were kept for 3 h at 37 °C in a CO2 incubator.” left out

[6] = test system: rat liver mitochondria; test: Respiration of isolated mitochondria fueled by glutamate and malate; type: biochemical
Description: (§3) Mitochondria were obtained from the liver of male Wistar rats (210–250 g) using the differential centrifugation method. The detailed procedure and composition of the isolation media were described earlier. The suspension of isolated mitochondria contained about 60–70 mg of mitochondrial protein per ml (determined by the Bradford method).
(§4) The rate of O2 consumption by mitochondrial samples was estimated using Oxygraph Plus (Hansatech Instruments Ltd., Pentney, King’s Lynn, UK). The reaction medium included 200 mM sucrose, 20 mM KCl, 0.5 mM EGTA, 5 mM KH2PO4, and 10 mM Hepes/KOH, pH 7.4. The following combinations of substrates and reagents were used: 2.5 mM potassium glutamate + 2.5 mM potassium malate and 5 mM potassium succinate + 1 µM rotenone. Under these conditions, it is possible to assess the oxygen-consuming capacity of mitochondria through complexes I and II of the electron transport chain. To determine the rates of the phosphorylating respiration (State 3) and uncoupled respiration (State 3UDNP) of the mitochondria, 200 µM ADP and 50 µM 2,4-dinitrophenol (DNP) were added sequentially. The concentration of mitochondrial protein was 1 mg/mL.

[7] = test system: rat liver mitochondria; test: Mitochondrial membrane potential (TPP-sensitive electrode); type: biochemical; settings: glutamate + malate or succinate + rotenone, Figure 5
Description: as §3
The mitochondrial membrane potential (Δψ) was measured using a penetrating tetraphenylphosphonium bromide (TPP) cation and a TPP-sensitive electrode (Nico-Analyte Ltd., Moscow, Russia) as described previously. The concentration of mitochondrial protein was 1 mg/mL.

[8] = test system: rat liver mitochondria; test: Respiration of isolated mitochondria fueled by succinate; type: biochemical
Description: as §3, §4

[9] = test system: BT474 cells; test: Oxidative stress assay (Muse Oxidative Stress Kit), BT474; type: cell-based, human; settings: BT474, 3 μM
Description: Oxidative stress was assessed after cell culture and incubation (as described above). For this, cells were harvested by trypsinization, washed with ice-cold PBS buffer (pH 7.4), and centrifuged (1000 rpm, 5 min). The resulting cells were resuspended in PBS. Cell population analysis for oxidative stress was performed on a Muse cell analyzer (Merck Millipore, Burlington, MA, USA) using the Muse Oxidative Stress Kit (MCH100111) according to the manufacturer’s protocol.

[10] = Homo sapiens, NCI-H1299, 48 h of treatment

SMILES	IC50 [1, 10] [µM]	IC50 [2] [µM]	IC50 [3] [µM]	IC50 ([4]; Homo sapiens, A549, 48 h) [µM]	IC50 [4] [µM]	IC50 [5] [µM]	ADP/O ([6]; 20 μM) [rel. un.]	RC (state 3/state 4) ([6]; 20 μM) [rel. un.]	State 2 respiration ([6]; 20 μM) [nmol O2/min/mg Protein]	State 3UDNP respiration ([6]; 20 μM) [nmol O2/min/mg Protein]	State 3 respiration ([6]; 20 μM) [nmol O2/min/mg Protein]	State 4 respiration ([6]; 20 μM) [nmol O2/min/mg Protein]	Selectivity against tumor cells and human fibroblasts [5]	ADP/O ([8]; 20 μM)	RC (state 3/state 4) ([8]; 20 μM) [rel. un.]	State 2 respiration ([8]; 20 μM) [nmol O2/min/mg Protein]	State 3UDNP respiration ([8]; 20 μM) [nmol O2/min/mg Protein]	State 3 respiration ([8]; 20 μM) [nmol O2/min/mg Protein]	State 4 respiration ([8]; 20 μM) [nmol O2/min/mg Protein]	also measured
CC1CCC2(C(=O)OCCCC[n+]3ccc(C=Cc4c[nH]c5ccccc45)cc3)CCC3(C)C(=CCC4C5(C)CC(O)C(O)C(C)(C)C5CCC43C)C2C1C (stereo not drawn) [CA-F16, N-{4-[(2α,3β-dihydroxy-urs-12-en-28-oyl)-butyl]-(E)-4-[2-(1H-indol-3-yl)-vinyl]}pyridinium bromide]	4.01 ± 1.69	6.7 ± 0.35	1.89 ± 0.27	1.9	1.87 ± 0.14	1.15 ± 0.38														Cytotoxicity higher than that of ursolic acid ([4]; A549 line, ratio of IC50 values): 36 times
CC1(C)CCC2(C(=O)OCCCC[n+]3ccc(C=Cc4c[nH]c5ccccc45)cc3)CCC3(C)C(=CCC4C5(C)CC(O)C(O)C(C)(C)C5CCC43C)C2C1 (stereo not drawn) (as salt: bromide) [MA-F16, N-{4-[(2α,3β-dihydroxy-olean-12-en-28-oyl)-butyl]-(E)-4-[2-(1H-indol-3-yl)-vinyl]}pyridinium bromide]																				melting point: 206 to 208 °C
CC1(C)CCC2(C(=O)OCCCC[n+]3ccc(C=Cc4c[nH]c5ccccc45)cc3)CCC3(C)C(=CCC4C5(C)CC(O)C(O)C(C)(C)C5CCC43C)C2C1 (stereo not drawn) [MA-F16, N-{4-[(2α,3β-dihydroxy-olean-12-en-28-oyl)-butyl]-(E)-4-[2-(1H-indol-3-yl)-vinyl]}pyridinium bromide]	10.5 ± 2.44	11.1 ± 2.51	7.44 ± 0.78	13.5 ± 2.02		9.3 ± 2.56														
CC1CCC2(C(=O)OCCCC[n+]3ccc(C=Cc4c[nH]c5ccccc45)cc3)CCC3(C)C(=CCC4C5(C)CC(O)C(O)C(C)(C)C5CCC43C)C2C1C (stereo not drawn) (as salt: bromide) [CA-F16, N-{4-[(2α,3β-dihydroxy-urs-12-en-28-oyl)-butyl]-(E)-4-[2-(1H-indol-3-yl)-vinyl]}pyridinium bromide]																				melting point: 219 to 221 °C
CC1(C)CC[C@]2(C(=O)O)CC[C@]3(C)C(=CC[C@@H]4[C@@]5(C)CC[C@H](O)C(C)(C)[C@@H]5CC[C@]43C)[C@@H]2C1 [OA, oleanolic acid, reference compound]		150 ± 25.1	114 ± 12.6	236	234 ± 22.1	156 ± 10.4	2.53 ± 0.12	2.11 ± 0.12	8.39 ± 0.09	35.74 ± 0.66	27.31 ± 0.31	13.23 ± 0.18	have not shown selectivity	1.45 ± 0.05 rel. un.	2.80 ± 0.09	15.06 ± 0.15	69.92 ± 0.68	48.00 ± 0.60	17.18 ± 0.78	IC50 ([1]; 48 h of treatment): 139 ± 6.85 µM; IC50 ([1]; Homo sapiens, NCI-H1299, 48 h, 48 h of treatment): 139 µM; Effect on membrane potential of organelles [7]: slightly reduce the membrane potential
CC1CCC2(C(=O)OCCCC[n+]3ccc(C=Cc4c[nH]c5ccccc45)cc3)CCC3(C)C(=CCC4C5(C)CCC(O)C(C)(C)C5CCC43C)C2C1C (stereo not shown) [UA-F16]	2.8 ± 0.25	5.18 ± 0.15	1.36 ± 0.74	2.4 ± 0.3		4.98 ± 0.9	0.74 ± 0.14	1.02 ± 0.02	14.75 ± 0.21	28.29 ± 1.18	19.35 ± 0.90	19.06 ± 1.11	highest selectivity	0.86 ± 0.05 *#^γ rel. un.	1.37 ± 0.11	15.86 ± 0.40	64.18 ± 3.81	43.98 ± 1.31	32.20 ± 1.68	ADP/O ([6]; 10 μM): 2.65 ± 0.05 rel. un.; RC (state 3/state 4) ([6]; 10 μM): 2.20 ± 0.04 rel. un.; State 2 respiration ([6]; 10 μM): 7.70 ± 0.33 nmol O2/min/mg Protein; State 3UDNP respiration ([6]; 10 μM): 35.23 ± 0.89 nmol O2/min/mg Protein; State 3 respiration ([6]; 10 μM): 25.89 ± 0.86 nmol O2/min/mg Protein; State 4 respiration ([6]; 10 μM): 11.78 ± 0.22 nmol O2/min/mg Protein; Chou–Talalay combination index (CI) ([3]; MCF7 cells, based on IC50 values for parent acid, F16 [23] and conjugate, CI < 1 synergism): 0.05; Selectivity index (SI) ([5]; between tumor cells H1299, A549 and MCF-7 and fibroblasts): 1.8–3.7; ADP/O ([8]; 10 μM): 1.28 ± 0.04 rel. un.; RC (state 3/state 4) ([8]; 10 μM): 2.65 ± 0.07 rel. un.; State 2 respiration ([8]; 10 μM): 14.42 ± 0.24 nmol O2/min/mg Protein; State 3UDNP respiration ([8]; 10 μM): 67.34 ± 2.12 nmol O2/min/mg Protein; State 3 respiration ([8]; 10 μM): 46.39 ± 0.30 nmol O2/min/mg Protein; State 4 respiration ([8]; 10 μM): 17.51 ± 0.23 nmol O2/min/mg Protein; Effect on level of ROS-positive cells [9]: significantly increase the level of ROS-positive cells
C[C@H]1[C@H](C)CC[C@]2(C(=O)O)CC[C@]3(C)C(=CC[C@@H]4[C@@]5(C)CC[C@H](O)C(C)(C)[C@@H]5CC[C@]43C)[C@H]12 [UA, ursolic acid, reference compound]	97.6 ± 5.63	110 ± 19.1	40.6 ± 12.5	68.9	68.9 ± 19.6	59.1 ± 7.73	2.82 ± 0.03	2.13 ± 0.09	8.01 ± 0.15	36.66 ± 1.47	26.92 ± 0.64	12.65 ± 0.32	have not shown selectivity	1.43 ± 0.04 rel. un.	3.32 ± 0.12	15.19 ± 0.27	75.91 ± 1.74	49.15 ± 0.30	15.54 ± 0.62	Effect on membrane potential of organelles [7]: did not show such an ability

From paper PMC10303159, “Conjugation of Triterpenic Acids of Ursane and Oleanane Types with Mitochondria-Targeting Cation F16 Synergistically Enhanced Their Cytotoxicity against Tumor Cells” (Membranes, 2023)
